For this assay, the system named is T1, CbSITL.
T1 construct: gene SITL
The following applies: Na+-dependent; 150 mM external NaCl, 50 mM Tris pH 7.4, internal 150 mM KCl and 6 mM Zn acetate, valinomycin; sigmoidal rate curve.

We go through 1 molecule from publication PMC10098502, “Characterization of the molecular mechanisms of silicon uptake in coccolithophores” (Environmental Microbiology, 2022).

Turning to `O[Si](O)(O)O` [silicic acid], the Km was determined as 31.8 ± 2.5 µM.

By Km is commonly meant the substrate concentration at which the rate is half of its maximum.
